{"source": "patent US11279744B2", "about": "“Neuropeptide Y fragment capable of releasing hematopoietic stem cells into blood and treating osteoporosis” (Kyungpook National University Industry-Academic Cooperation …, priority 2017, dated 2022)", "key": {"[1]": {"tested_on": "animal models of osteoporosis", "experiment": "Micro CT bone density in animal models of osteoporosis", "type": "in vivo, mouse", "details": "OVX mice, 50 μg/kg i.p. twice a day for 4 weeks; femur microCT; compared to PBS", "protocol": "To make an osteoporosis model, 10-18 12 weeks old female mice per group underwent ovarian ablation. A week later, 50 μg/kg of NPY(21-28), NPY D^25(21-28), NPY D^26(21-28), NPY D^25,26(21-28), Osteopep2, NPY and 100 μl of PBS(Gibco) were intraperitoneally administered twice a day for 4 weeks at 12 hour intervals. Alendronate (Sigma), used as a competitive drug, was intraperitoneally administered once a week for 4 weeks at a dose of 50 μg/kg. As a control group, only Sham model of osteoporosis was performed by subcutaneous dissection of female mouse. Mice were placed in experimental groups using the Block randomization method, and all mouse experiments were approved through the Kyungpook National University Institutional Animal Care and Use Committee. The femurs were separated from the mouse and refrigerated in 80% ethanol, and in order to measure change of bone density, the bone volume/total volume and trabecular thickness were measured by analyzing the area between 0.7 mm and 2.3 mm from the growth plate baseline with the Quantum FX microCT Imaging System. Femurs were separated from mice after the last administration of NPY (21-28) at 4 weeks. To determine the change of bone density, bone density (bone volume/total volume) and bone tissue thickness (trabecular thickness) were measured with the Quantum FX microCT Imaging System. Femurs were separated from mice after the last administration of NPY D^25(21-28), NPY D^26(21-28), and NPY D^25,26(21-28) at 4 weeks. To determine the change of bone density, bone density (bone volume/total volume) and bone tissue thickness (trabecular thickness) were measured with the Quantum FX microCT Imaging System."}, "[2]": {"tested_on": "osteoclasts in bone marrow", "experiment": "TRAP staining of osteoclasts in bone marrow of osteoporosis animal models", "type": "in vivo, mouse", "details": "OVX mice, 50 μg/kg i.p. twice a day for 4 weeks; compared to PBS", "protocol": "To make an osteoporosis model, 10-18 12 weeks old female mice per group underwent ovarian ablation. A week later, 50 μg/kg of NPY(21-28), NPY D^25(21-28), NPY D^26(21-28), NPY D^25,26(21-28), Osteopep2, NPY and 100 μl of PBS(Gibco) were intraperitoneally administered twice a day for 4 weeks at 12 hour intervals. Alendronate (Sigma), used as a competitive drug, was intraperitoneally administered once a week for 4 weeks at a dose of 50 μg/kg. As a control group, only Sham model of osteoporosis was performed by subcutaneous dissection of female mouse. Mice were placed in experimental groups using the Block randomization method, and all mouse experiments were approved through the Kyungpook National University Institutional Animal Care and Use Committee.\nThe femurs were separated from the mice and fixed in 4% paraformaldehyde for 24 hours, and tissue was decalcified in 10% EDTA for 5 weeks. It was then dehydrated with a series of diluted alcohols, paraffinized, and prepared into […] paraffin sections.\nFor TRAP staining, sections were deparaffinized, stained with 1.33 mM Fast Red Violet LB Salt (Sigma-Aldrich) in 50 mM sodium acetate (pH 5.0) containing 225 μM Naphthol AS-MX phosphate (Sigma-Aldrich, St Louis, Mo., USA), 0.84% N, N-dimethylformamide (Sigma-Aldrich) and 50 mM sodium tartrate, and incubated for 30 minutes. After incubation, the sections were washed with distilled water and counterstained with 1% methyl green.\nHistomorphometric analysis was performed using the OsteoMeasure program (Extensive interactive Bone Histomorphometry Analysis System).\nAfter the last administration at 4 weeks of NPY (21-28), the femurs were separated from the mice and the number of osteoclasts in the bone marrow was measured by TRAP staining.\nAfter the last administration at 4 weeks of NPY D^25(21-28), NPY D^26(21-28), and NPY D^25,26(21-28), the femurs were separated from the mice and the number of osteoclasts in the bone marrow was measured by TRAP staining."}, "[3]": {"tested_on": "hematopoietic stem cell adhesion factors (Sdf-1a, KitI, Angpt1) present in osteoblasts", "experiment": "expression of hematopoietic stem cell adhesion factors in osteoblasts, real-time quantitative PCR", "type": "cell-based, mouse", "details": "10 nM peptide for 3 days; compared to osteoblasts (control) not treated with peptides; fold change", "protocol": "All mice used in the experiment were 6 to 8 weeks old mice, C57BL/6 mice, and purchased from Jackson Laboratory (Bar Harbor, Me., USA). NPY (21-28) (SEQ ID NO: 1), NPY (24-31) (SEQ ID NO: 2), NPY (29-36) (SEQ ID NO: 3), NPY D25 (21-28) (SEQ ID NO: 4), NPY D26 (21-28) (SEQ ID NO: 5), NPY D25, 26 (21-28) (SEQ ID NO: 6), NPY (21-36) (Osteopep2) (SEQ ID NO: 7) were prepared from Anygen. Full length NPY (SEQ ID NO: 8) was purchased from Bachem. 10 nM of each peptide was diluted in each medium and injected for in vitro experiments. The NPY D^25(21-28) refers to a peptide in which arginine, the fifth amino acid of the amino acid sequence of NPY (21-28), is modified to D-type, the NPY D^26(21-28) refers to a peptide in which the sixth amino acid histidine is modified to D-form, and the D^25,26(21-28) refers to a peptide in which both the fifth and sixth amino acids are modified to D-form, respectively.\nFour to six weeks old C57BL/6 mice were sacrificed after anesthesia, and then tibias and femurs were dissected. Bone marrow was harvested from tibias and femurs and single cell suspensions were obtained using a 40 μm cell strainer (Becton-Dickinson LAβware, Franklin Lakes, N.J.). Approximately […] were dispensed into 75-cm 2 flasks containing mesenchymal stem cells Stimulatory Supplements with antibiotics (Stem Cell Technologies, Inc) and MesenCult™ MSCBasal medium. The cells were incubated for 1 week and further incubated for 3 weeks with StemXVivo Osteogenic/Adipogenic Base Media (R & D systems) supplemented with StemXVivo Osteogenic supplement (20×) and penicillin-streptomycin (100×) for differentiation into osteoblasts.\nReal-time quantitative PCR was used to measure expression levels of hematopoietic stem cell adhesion factors (Sdf-1a, KitI, Angpt1) present in osteoblasts. Total RNA was extracted from cell eluate and bone marrow cells using the RNeasy Plus mini kit (Qiagen, Korea, Ltd), and cDNAs were synthesized from 5 μg total RNA using a kit in Clontech (Mountain View, Calif.). In addition, using a Corbett research RG-6000 real-time PCR instrument, Real-time quantitative PCR was performed at 95° C. for 10 minutes; at 95° C., for 10 seconds; at 58° C., for 15 seconds; at 72° C. for 20 seconds as one cycle, and 40 cycles were repeated.\nFirst, bone marrow was harvested from 4 to 6 weeks old C57BL6 mice, and mesenchymal stem cells (BM-MSCs) in bone marrow were collected, and then cultured for 3 weeks in osteoblast differentiation induction medium for the differentiation into osteoblasts. After 28 days, each peptide was treated with 10 nM for 3 days, and bone cells were collected and examined for expression levels of three adhesion factors by real-time quantitative PCR. Osteopep2 and its parent NPY were used as positive controls."}}, "note": "No end group written: not given here.", "data": [{"substance": "NPY: full length neuropeptide Y purchased from Bachem, used as positive control [reference compound]", "values": [{"measurement": "bone tissue thickness (trabecular thickness)", "setting": "[1]", "value": "increased"}, {"measurement": "percentage of bone density (BV/TV)", "setting": "[1]", "value": "increased"}, {"measurement": "number of TRAP positive osteoclasts in bone marrow (Number of osteoclast/Bone surface)", "setting": "[2]", "value": "reduced"}, {"measurement": "osteoclast surface (Osteoclast surface/Bone surface)", "setting": "[2]", "value": "reduced"}]}, {"substance": "NPY (29-36): recombinant peptide consisting of eight amino acids of NPY, SEQ ID NO: 3 (NLITRQRY; ends and bridges not checked)", "values": [{"measurement": "expression levels of Sdf-1a, KitI, and Angpt1 in osteoblasts", "setting": "[3]", "value": "decreased only in osteoblasts treated with NPY (21-28)"}]}, {"substance": "NPY (24-31): recombinant peptide consisting of eight amino acids of NPY, SEQ ID NO: 2 (LRHYINLI; synthetic neuropeptide Y fragment (24-31))", "values": [{"measurement": "expression levels of Sdf-1a, KitI, and Angpt1 in osteoblasts", "setting": "[3]", "value": "decreased only in osteoblasts treated with NPY (21-28)"}]}]}
